Assay results as given in patent publication US6737383B1, “Herbicidal oxadiazolidines” (priority 1999, dated 2004).

Tests used:
rape = experiment: Test B pre/postemergence rape; type: in vivo, Brassica napus
In short: (§1)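 Test chemicals in a non-phytotoxic solvent mixture with surfactant were sprayed preemergence onto planted seeds and postemergence onto plants 2 to 18 cm tall (1- to 4-leaf stage). After twelve to sixteen days in a greenhouse, injury was visually rated against untreated controls from 0 (no effect) to 10 (complete control).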

purple nutsedge = experiment: Test B pre/postemergence purple nutsedge; type: in vivo, Cyperus rotundus
In short: as §1

giant foxtail = experiment: Test B pre/postemergence giant foxtail; type: in vivo, Setaria faberii
In short: as §1

blackgrass = experiment: Test B pre/postemergence blackgrass; type: in vivo, Alopecurus myosuroides
In short: as §1

wheat = experiment: Test B pre/postemergence wheat; type: in vivo, Triticum aestivum
In short: as §1

pigweed = experiment: Test B pre/postemergence pigweed; type: in vivo, Amaranthus retroflexus
In short: as §1

rice = experiment: Test B flood test rice; type: in vivo, Oryza sativa
In short: (§2)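 Plants were grown to the 2-leaf stage before treatment with test chemical, then held in a greenhouse for twelve to sixteen days. Injury was visually rated against untreated controls on a 0–10 scale, where 0 is no effect and 10 is complete control.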

morningglory = experiment: Test B pre/postemergence morningglory; type: in vivo, Ipomoea hederacea
In short: as §1

sugar beet = experiment: Test B pre/postemergence sugar beet; type: in vivo, Beta vulgaris
In short: as §1

smallflower flatsedge = experiment: Test B flood test smallflower flatsedge; type: in vivo, Cyperus difformis
In short: as §2

cocklebur = experiment: Test B pre/postemergence cocklebur; type: in vivo, Xanthium strumarium
In short: as §1

duck salad = experiment: Test B flood test duck salad; type: in vivo, Heteranthera limosa
In short: as §2

corn = experiment: Test B pre/postemergence corn; type: in vivo, Zea mays
In short: as §1

crabgrass = experiment: Test B pre/postemergence crabgrass; type: in vivo, Digitaria sanguinalis
In short: as §1

soybean = experiment: Test B pre/postemergence soybean; type: in vivo, Glycine max
In short: as §1

velvetleaf = experiment: Test B pre/postemergence velvetleaf; type: in vivo, Abutilon theophrasti
In short: as §1

[1] = Postemergence, Rate 62 g/ha, scale 0 to 10, 0 is no effect, 10 is complete control
[2] = Postemergence, Rate 250 g/ha, scale 0 to 10, 0 no effect, 10 complete control
[3] = Preemergence, Rate 62 g/ha, scale 0 to 10, 0 is no effect, 10 is complete control
[4] = Preemergence, Rate 125 g/ha, scale 0 to 10 (0 no effect, 10 complete control)
[5] = Preemergence, Rate 250 g/ha, scale of 0 to 10 where 0 is no effect and 10 is complete control
[6] = Preemergence, Rate 500 g/ha, scale 0 (no effect) to 10 (complete control)
[7] = Rate 125 g/ha, Postemergence, scale 0 to 10, 0 no effect, 10 complete control
[8] = Rate 500 g/ha, Postemergence, scale 0 to 10, 0 no effect, 10 complete control
[9] = Rate 125 g/ha, Postemergence section (flood test species), scale 0 to 10, 0 no effect, 10 complete control
[10] = Rate 500 g/ha, listed under Postemergence (flood test species), scale 0 to 10, 0 no effect, 10 complete control
[11] = flood test, listed under Postemergence, Rate 250 g/ha, scale 0 to 10, 0 no effect, 10 complete control

With Cc1ccccc1-n1c(=O)on(C(=O)N(c2ccc(F)c(F)c2)C(C)C)c1=O [Compound 48] the “Rape plant response rating” value (rape; [1]) was 0, the “Rape plant response rating” value (rape; [2]) was 0 and the “Plant response rating, Rape” value (rape; [3]) was 0. The “Plant response rating, Rape” value (rape; [4]) was 0, the “Plant response rating, Rape” value (rape; [5]) was 0 and the “Rape plant response rating” value (rape; [6]) was 0. The “Rape plant response rating” value (rape; [7]) was 0, the “Rape plant response rating” value (rape; [8]) was 0 and the “Nutsedge plant response rating” value (purple nutsedge; [1]) was 0. For the same molecule, the “Nutsedge plant response rating” value (purple nutsedge; [2]) was 0, the “Plant response rating, Nutsedge” value (purple nutsedge; [3]) was 0 and the “Plant response rating, Nutsedge” value (purple nutsedge; [4]) was 0. For the same molecule, the “Plant response rating, Nutsedge” value (purple nutsedge; [5]) was 0, the “Nutsedge plant response rating” value (purple nutsedge; [6]) was 0 and the “Nutsedge plant response rating” value (purple nutsedge; [7]) was 0. The “Nutsedge plant response rating” value (purple nutsedge; [8]) was 0, the “Giant foxtail plant response rating” value (giant foxtail; [1]) was 0 and the “Giant foxtail plant response rating” value (giant foxtail; [2]) was 2. The “Plant response rating, Giant foxtail” value (giant foxtail; [3]) was 6, the “Plant response rating, Giant foxtail” value (giant foxtail; [4]) was 9 and the “Plant response rating, Giant foxtail” value (giant foxtail; [5]) was 10. For the same molecule, the “Giant foxtail plant response rating” value (giant foxtail; [6]) was 10, the “Giant foxtail plant response rating” value (giant foxtail; [7]) was 0 and the “Giant foxtail plant response rating” value (giant foxtail; [8]) was 3. The “Blackgrass plant response rating” value (blackgrass; [1]) was 0, the “Blackgrass plant response rating” value (blackgrass; [2]) was 0 and the “Plant response rating, Blackgrass” value (blackgrass; [3]) was 0. The “Plant response rating, Blackgrass” value (blackgrass; [4]) was 0, the “Plant response rating, Blackgrass” value (blackgrass; [5]) was 2 and the “Blackgrass plant response rating” value (blackgrass; [6]) was 2. The “Blackgrass plant response rating” value (blackgrass; [7]) was 0, the “Blackgrass plant response rating” value (blackgrass; [8]) was 0 and the “Wheat plant response rating” value (wheat; [1]) was 0. The “Wheat plant response rating” value (wheat; [2]) was 0, the “Plant response rating, Wheat” value (wheat; [3]) was 0 and the “Plant response rating, Wheat” value (wheat; [4]) was 0. For the same molecule, the “Plant response rating, Wheat” value (wheat; [5]) was 0, the “Wheat plant response rating” value (wheat; [6]) was 0 and the “Wheat plant response rating” value (wheat; [7]) was 0. For the same molecule, the “Wheat plant response rating” value (wheat; [8]) was 0, the “Redroot pigweed plant response rating” value (pigweed; [1]) was 0 and the “Redroot pigweed plant response rating” value (pigweed; [2]) was 0. The “Plant response rating, Redroot pigweed” value (pigweed; [3]) was 0, the “Plant response rating, Redroot pigweed” value (pigweed; [4]) was 0 and the “Plant response rating, Redroot pigweed” value (pigweed; [5]) was 0. The “Redroot pigweed plant response rating” value (pigweed; [6]) was 0, the “Redroot pigweed plant response rating” value (pigweed; [7]) was 0 and the “Redroot pigweed plant response rating” value (pigweed; [8]) was 0. The “Rice plant response rating” value (rice; [1]) was 0, the “Rice plant response rating” value (rice; [9]) was 0 and the “Rice plant response rating” value (rice; [10]) was 0. For the same molecule, the “Rice plant response rating” value (rice; [11]) was 0, the “Morningglory plant response rating” value (morningglory; [1]) was 0 and the “Morningglory plant response rating” value (morningglory; [2]) was 0. For the same molecule, the “Plant response rating, Morningglory” value (morningglory; [3]) was 0, the “Plant response rating, Morningglory” value (morningglory; [4]) was 0 and the “Plant response rating, Morningglory” value (morningglory; [5]) was 0. The “Morningglory plant response rating” value (morningglory; [6]) was 0, the “Morningglory plant response rating” value (morningglory; [7]) was 0 and the “Morningglory plant response rating” value (morningglory; [8]) was 1. The “Sugarbeets plant response rating” value (sugar beet; [1]) was 0, the “Sugarbeets plant response rating” value (sugar beet; [2]) was 0 and the “Plant response rating, Sugarbeets” value (sugar beet; [3]) was 0. The “Plant response rating, Sugarbeets” value (sugar beet; [4]) was 0, the “Plant response rating, Sugarbeets” value (sugar beet; [5]) was 0 and the “Sugarbeets plant response rating” value (sugar beet; [6]) was 0. For the same molecule, the “Sugarbeets plant response rating” value (sugar beet; [7]) was 0, the “Sugarbeets plant response rating” value (sugar beet; [8]) was 0 and the “S. Flatsedge plant response rating” value (smallflower flatsedge; [1]) was 0. The “S. Flatsedge plant response rating” value (smallflower flatsedge; [9]) was 0, the “S. Flatsedge plant response rating” value (smallflower flatsedge; [10]) was 0 and the “S. Flatsedge plant response rating” value (smallflower flatsedge; [11]) was 0. The “Cocklebur plant response rating” value (cocklebur; [1]) was 0, the “Cocklebur plant response rating” value (cocklebur; [2]) was 0 and the “Plant response rating, Cocklebur” value (cocklebur; [3]) was 0. The “Plant response rating, Cocklebur” value (cocklebur; [4]) was 0, the “Plant response rating, Cocklebur” value (cocklebur; [5]) was 0 and the “Cocklebur plant response rating” value (cocklebur; [6]) was 0. For the same molecule, the “Cocklebur plant response rating” value (cocklebur; [7]) was 0, the “Cocklebur plant response rating” value (cocklebur; [8]) was 2 and the “Ducksalad plant response rating” value (duck salad; [1]) was 0. The “Ducksalad plant response rating” value (duck salad; [10]) was 0, the “Ducksalad plant response rating” value (duck salad; [11]) was 0 and the “Corn plant response rating” value (corn; [1]) was 0. The “Corn plant response rating” value (corn; [2]) was 0, the “Plant response rating, Corn” value (corn; [3]) was 0 and the “Plant response rating, Corn” value (corn; [4]) was 0. For the same molecule, the “Plant response rating, Corn” value (corn; [5]) was 0, the “Corn plant response rating” value (corn; [6]) was 0 and the “Corn plant response rating” value (corn; [7]) was 0. For the same molecule, the “Corn plant response rating” value (corn; [8]) was 0, the “Crabgrass plant response rating” value (crabgrass; [1]) was 0 and the “Crabgrass plant response rating” value (crabgrass; [2]) was 3. For the same molecule, the “Plant response rating, Crabgrass” value (crabgrass; [3]) was 1, the “Plant response rating, Crabgrass” value (crabgrass; [4]) was 6 and the “Plant response rating, Crabgrass” value (crabgrass; [5]) was 7. For the same molecule, the “Crabgrass plant response rating” value (crabgrass; [6]) was 7, the “Crabgrass plant response rating” value (crabgrass; [7]) was 1 and the “Crabgrass plant response rating” value (crabgrass; [8]) was 8. For the same molecule, the “Soybean plant response rating” value (soybean; [1]) was 1, the “Soybean plant response rating” value (soybean; [2]) was 1 and the “Plant response rating, Soybean” value (soybean; [3]) was 0. For the same molecule, the “Plant response rating, Soybean” value (soybean; [4]) was 0, the “Plant response rating, Soybean” value (soybean; [5]) was 0 and the “Soybean plant response rating” value (soybean; [6]) was 0. The “Soybean plant response rating” value (soybean; [7]) was 1, the “Soybean plant response rating” value (soybean; [8]) was 1 and the “Velvetleaf plant response rating” value (velvetleaf; [1]) was 0. The “Velvetleaf plant response rating” value (velvetleaf; [2]) was 0, the “Plant response rating, Velvetleaf” value (velvetleaf; [3]) was 0 and the “Plant response rating, Velvetleaf” value (velvetleaf; [4]) was 0. For the same molecule, the “Plant response rating, Velvetleaf” value (velvetleaf; [5]) was 0, the “Velvetleaf plant response rating” value (velvetleaf; [6]) was 0 and the “Velvetleaf plant response rating” value (velvetleaf; [7]) was 0. The “Velvetleaf plant response rating” value (velvetleaf; [8]) was 0.
